In US20240124470A1, “FIVE-MEMBERED RING DERIVATIVE AND MEDICAL USE THEREOF” (SICHUAN HAISCO PHARMACEUTICAL CO., LTD., priority 2020, published 2024):
Where a name gives a salt, the structure may show the parent alone. Read-outs that look alike come from different tables or passages of the source.

Molecular target: T1, GLP-1 receptor (Homo sapiens, UniProt P43220)
T1 construct: expressed in transfected cells
Test: HEK293/CRE-luc/GLP-1R cell luciferase reporter test (agonistic effect on GLP-1 receptor)
Type: cell-based
Conditions: HEK293/CRE-luc/GLP-1R cells
Procedure: 1. HEK293/CRE-luc/GLP-1β cell viability
Cell: HEK293/CRE-luc/GLP-1R
Cell culture medium: DMEM+10% FBS+400 μg/ml G418+100 μg/ml Hygromycin B
Frozen stock solution: 90% FBS, 10% (V/V) DMSO
Detection buffer: DMEM+1% FBS
Cells were cultured in DMEM medium+10% FBS+400 μg/ml G418+100 μg/ml Hygromycin B in a CO2 incubator at 37° C., and passaged once every 3-4 days.
Cell plating: Trypsinization adjusted the cell density to 1.67×10^5 cells/mL; 60 μL of cells per well (10000 cells/well) was inoculated in a 384-well plate containing compounds; A NC well (negative control) and a background well (no cells) were set. Incubation was performed for about 18+2 h in the incubator.
Compounds were serially diluted with the detection buffer, and the detection concentration was 0.01 nM-1000 nM.
The cell culture plate was removed and all supernatant was aspirated from the cells. The cells were washed gently 2 times with 1×PBS.
The diluted compound was added to a 384-well plate (10 μL/well), and three replicate wells were set for each concentration. 10 μL of the detection buffer was added to the NC well, sealed and incubated at 37° C. for 6 hours.
The plate was removed, the cells were allowed to equilibrate to room temperature (at least 15 min), and then all supernatant was aspirated from the cells.
Steady-Glo® Reagent was added to the sample well at 10 μL/well and incubated at room temperature for 5 min to lyse the cells.
The test results were read with a BMG microplate reader.
The mean background value was calculated.
The induction factor (Fold of induction, FI)=(induction well value−background value)/(negative control well value −background value) was calculated.
The EC50 value of the sample was calculated using Graphpad Prim 8.0 software using four-parameter fitting analysis.
Mean and standard error (Mean±SEM) were calculated for all results and Graphpad Prism software was used for statistical analysis. Specific data were presented in the form of graphs. P<0.05 was considered to be statistically different.

[1] = 6 hours incubation, class symbols, read-out: EC50
[2] = bound stated, read-out: EC50 value

T1 sequence (P43220 24-463): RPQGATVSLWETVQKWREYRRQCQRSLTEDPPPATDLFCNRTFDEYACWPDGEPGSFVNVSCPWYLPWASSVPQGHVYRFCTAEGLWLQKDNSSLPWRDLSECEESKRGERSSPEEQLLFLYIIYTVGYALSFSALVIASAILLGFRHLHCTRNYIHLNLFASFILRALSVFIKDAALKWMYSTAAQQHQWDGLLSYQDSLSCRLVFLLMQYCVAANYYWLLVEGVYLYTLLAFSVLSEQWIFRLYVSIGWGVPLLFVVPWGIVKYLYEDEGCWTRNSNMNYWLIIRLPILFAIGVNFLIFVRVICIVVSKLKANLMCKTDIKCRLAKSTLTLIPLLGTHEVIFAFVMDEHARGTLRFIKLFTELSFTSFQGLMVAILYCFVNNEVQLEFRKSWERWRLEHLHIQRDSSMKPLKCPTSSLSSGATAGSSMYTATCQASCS

| EC50 [1] | EC50 [2] | Compound |
| --- | --- | --- |
| < 10 nM | < 10 nM | N#Cc1ccc(COc2nc(-c3ccc(Cc4nc5sc(C(=O)O)cc5n4C[C@@H]4CCO4)c(F)c3)ccc2F)c(F)c1 [Compound 18, (S)-2-(4-(6-((4-cyano-2-fluorobenzyl)oxy)-5-fluoropyridin-2-yl)-2-fluorobenzyl)-1-(oxetan-2-ylmethyl)-1H-thieno[2,3-d]imidazole-5-carboxylic acid] |
| < 10 nM | < 10 nM | N#Cc1ccc(COc2cccc(C3CCN(Cc4nc5sc(C(=O)O)cc5n4C[C@@H]4CCCO4)CC3)n2)c(F)c1 [Compound 12, (S)-2-((4-(6-((4-cyano-2-fluorobenzyl)oxy)pyridin-2-yl)piperidin-1-yl)methyl)-1-((tetrahydrofuran-2-yl)methyl)-1H-thieno[2,3-d]imidazole-5-carboxylic acid] |
| < 10 nM | < 10 nM | N#Cc1ccc(COc2cccc(-c3cc(F)c(Cc4nc5sc(C(=O)O)cc5n4C[C@@H]4CCO4)cc3F)n2)cc1 [Compound 23, (S)-2-(4-(6-((4-cyanobenzyl)oxy)pyridin-2-yl)-2,5-difluorobenzyl)-1-(oxetan-2-ylmethyl)-1H-thieno[2,3-d]imidazole-5-carboxylic acid] |
| < 10 nM | < 10 nM | CC1(c2ccc(Cl)cc2F)Oc2cccc(C3CCN(Cc4nc5sc(C(=O)O)cc5n4C[C@@H]4CCO4)CC3)c2O1 (stereo partly drawn) [Compound 4, 2-((4-(2-(4-chloro-2-fluorophenyl)-2-methylbenzo[d][1,3]dioxol-4-yl)piperidin-1-yl)methyl)-1-(((S)-oxetan-2-yl)methyl)-1H-thieno[2,3-d]imidazole-5-carboxylic acid] |
| < 10 nM | < 10 nM | N#Cc1ccc(COc2cccc(-c3cnn(Cc4nc5sc(C(=O)O)cc5n4C[C@@H]4CCO4)c(=O)c3)n2)c(F)c1 [Compound 9, (S)-2-((4-(6-((4-cyano-2-fluorobenzyl)oxy)pyridin-2-yl)-6-oxopyridazin-1(6H)-yl)methyl)-1-(oxetan-2-ylmethyl)-1H-thieno[2,3-d]imidazole-5-carboxylic acid] |
| < 10 nM | < 10 nM | CC1(c2ccc(Cl)cn2)Oc2cccc(C3CCN(Cc4nc5sc(C(=O)O)cc5n4C[C@@H]4CCO4)CC3)c2O1 (stereo partly drawn) [Compound 24, 2-((4-(2-(5-chloropyridin-2-yl)-2-methylbenzo[d][1,3]dioxol-4-yl)piperidin-1-yl)methyl)-1-(((S)-oxetan-2-yl)methyl)-1H-thieno[2,3-d]imidazole-5-carboxylic acid] |
| < 10 nM | < 10 nM | N#Cc1ccc(COc2cccc(-c3ccc(Cc4nc5sc(C(=O)O)cc5n4C[C@@H]4CCO4)c(F)c3)n2)cc1 [Compound 20, (S)-2-(4-(6-((4-cyanobenzyl)oxy)pyridin-2-yl)-2-fluorobenzyl)-1-(oxetan-2-ylmethyl)-1H-thieno[2,3-d]imidazole-5-carboxylic acid] |
| < 10 nM | < 10 nM | CC1(c2ccc(C#N)cc2F)Oc2cccc(C3CCN(Cc4nc5sc(C(=O)O)cc5n4C[C@@H]4CCO4)CC3)c2O1 (stereo partly drawn) [Compound 5, 2-((4-(2-(4-cyano-2-fluorophenyl)-2-methylbenzo[d][1,3]dioxol-4-yl)piperidin-1-yl)methyl)-1-(((S)-oxetan-2-yl)methyl)-1H-thieno[2,3-d]imidazole-5-carboxylic acid] |
| < 10 nM | < 10 nM | CC1(c2ccc(Cl)cc2F)Oc2cccc(-c3ccc(Cc4nc5sc(C(=O)O)cc5n4C[C@@H]4CCO4)cc3)c2O1 (stereo partly drawn) [Compound 11, 2-(4-(2-(4-chloro-2-fluorophenyl)-2-methylbenzo[d][1,3]dioxol-4-yl)benzyl)-1-(((S)-oxetan-2-yl)methyl)-1H-thieno[2,3-d]imidazole-5-carboxylic acid] |
| < 10 nM | < 10 nM | Cc1cc(Cc2nc3sc(C(=O)O)cc3n2C[C@@H]2CCO2)c(F)cc1-c1cccc(OCc2ccc(C#N)cc2F)n1 [Compound 8, (S)-2-(4-(6-((4-cyano-2-fluorobenzyl)oxy)pyridin-2-yl)-2-fluoro-5-methylbenzyl)-1-(oxetan-2-ylmethyl)-1H-thieno[2,3-d]imidazole-5-carboxylic acid] |
| < 10 nM | < 10 nM | N#Cc1ccc(COc2nc(-c3cc(F)c(Cc4nc5sc(C(=O)O)cc5n4C[C@@H]4CCO4)cc3F)ccc2F)c(F)c1 [Compound 22, (S)-2-(4-(6-((4-cyano-2-fluorobenzyl)oxy)-5-fluoropyridin-2-yl)-2,5-difluorobenzyl)-1-(oxetan-2-ylmethyl)-1H-thieno[2,3-d]imidazole-5-carboxylic acid] |
| < 10 nM | < 10 nM | N#Cc1ccc(COc2cccc(N3CCN(Cc4nc5sc(C(=O)O)cc5n4C[C@@H]4CCO4)CC3)n2)c(F)c1 [Compound 13, (S)-2-((4-(6-((4-cyano-2-fluorobenzyl)oxy)pyridin-2-yl)piperazin-1-yl)methyl)-1-(oxetan-2-ylmethyl)-1H-thieno[2,3-d]imidazole-5-carboxylic acid] |
| < 10 nM | < 10 nM | N#Cc1ccc(COc2cccc(-c3cc(F)c(Cc4nc5sc(C(=O)O)cc5n4C[C@@H]4CCO4)cc3F)n2)c(F)c1 [Compound 21, (S)-2-(4-(6-((4-cyano-2-fluorobenzyl)oxy)pyridin-2-yl)-2,5-difluorobenzyl)-1-(oxetan-2-ylmethyl)-1H-thieno[2,3-d]imidazole-5-carboxylic acid] |
| < 10 nM | < 10 nM | N#Cc1ccc(COc2cccc(C3=CCN(Cc4nc5sc(C(=O)O)cc5n4C[C@@H]4CCO4)CC3)n2)c(F)c1 [Trifluoroacetate salt of compound 2, (S)-2-((6-((4-cyano-2-fluorobenzyl)oxy)-3′,6′-dihydro-[2,4′-bipyridin]-1′(2′H)-yl)methyl)-1-(oxetan-2-ylmethyl)-1H-thieno[2,3-d]imidazole-5-carboxylic acid] |
| < 10 nM | < 10 nM | CC1(c2ccc(Cl)cc2F)Oc2cccc(-c3ccc(Cc4nc5sc(C(=O)O)cc5n4C[C@@H]4CCO4)c(F)c3)c2O1 (stereo partly drawn) [Compound 10, 2-(4-(2-(4-chloro-2-fluorophenyl)-2-methylbenzo[d][1,3]dioxol-4-yl)-2-fluorobenzyl)-1-(((S)-oxetan-2-yl)methyl)-1H-thieno[2,3-d]imidazole-5-carboxylic acid] |
| < 10 nM | < 10 nM | N#Cc1ccc(COc2cccc(C3CCN(Cc4nc5sc(C(=O)O)cc5n4C[C@@H]4CCO4)CC3)n2)c(F)c1 [Trifluoroacetate salt of compound 1, (S)-2-((4-(6-((4-cyano-2-fluorobenzyl)oxy)pyridin-2-yl)piperidin-1-yl)methyl)-1-(oxetan-2-ylmethyl)-1H-thieno[2,3-d]imidazole-5-carboxylic acid] |
| < 10 nM | < 10 nM | N#Cc1ccc(COc2cccc(C3CCN(Cc4nc5cc(C(=O)O)sc5n4C[C@@H]4CCO4)CC3)n2)c(F)c1 [Compound 16, (S)-2-((4-(6-((4-cyano-2-fluorobenzyl)oxy)pyridin-2-yl)piperidin-1-yl)methyl)-3-(oxetan-2-ylmethyl)-3H-thieno[2,3-d]imidazole-5-carboxylic acid] |
| < 10 nM | < 10 nM | C[C@H]1CN(c2cccc(OCc3ccc(C#N)cc3F)n2)CCN1Cc1nc2sc(C(=O)O)cc2n1C[C@@H]1CCO1 [Trifluoroacetate salt of compound 3, 2-(((S)-4-(6-((4-cyano-2-fluorobenzyl)oxy)pyridin-2-yl)-2-methylpiperazin-1-yl)methyl)-1-(((S)-oxetan-2-yl)methyl)-1H-thieno[2,3-d]imidazole-5-carboxylic acid] |
| < 10 nM | < 10 nM | N#Cc1ccc(COc2cccc(-c3ccc(Cc4nc5sc(C(=O)O)cc5n4C[C@@H]4CCO4)cc3)n2)c(F)c1 [Compound 7, (S)-2-(4-(6-((4-cyano-2-fluorobenzyl)oxy)pyridin-2-yl)benzyl)-1-(oxetan-2-ylmethyl)-1H-thieno[2,3-d]imidazole-5-carboxylic acid] |
| < 10 nM | < 10 nM | N#Cc1ccc(COc2nc(C3CCN(Cc4nc5sc(C(=O)O)cc5n4C[C@@H]4CCO4)CC3)ccc2F)c(F)c1 [Compound 17, (S)-2-((4-(6-((4-cyano-2-fluorobenzyl)oxy)-5-fluoropyridin-2-yl)piperidin-1-yl)methyl)-1-(oxetan-2-ylmethyl)-1H-thieno[2,3-d]imidazole-5-carboxylic acid] |
| < 10 nM | < 10 nM | N#Cc1ccc(COc2ncccc2C2CCN(Cc3nc4sc(C(=O)O)cc4n3C[C@@H]3CCO3)CC2)c(F)c1 [Compound 15, (S)-2-((4-(2-((4-cyano-2-fluorobenzyl)oxy)pyridin-3-yl)piperidin-1-yl)methyl)-1-(oxetan-2-ylmethyl)-1H-thieno[2,3-d]imidazole-5-carboxylic acid] |
